Laboratory results: the NIST ThermoML archive (doi:10.1021/je010317u)
Numbers after ± are expanded uncertainties.

Assay: refractive index (Na D-line) (dimensionless)
Details: 298.15 K; 101.33 kPa; Liquid; Abbe refractometer

Row | Structure (SMILES) | refractive index
1 | Cc1ccccc1C [1,2-dimethylbenzene] | 1.5018 ± 0.0005
2 | Cc1cccc(C)c1 [1,3-dimethylbenzene] | 1.4943 ± 0.0005
3 | Cc1ccc(C)cc1 [1,4-dimethylbenzene] | 1.4925 ± 0.0005
4 | c1ccccc1 [benzene] | 1.499 ± 0.0004
5 | CCCCCCCCCCCC [dodecane] | 1.4275 ± 0.0005
6 | CCCCCCCCCCCCCCCC [hexadecane] | 1.4325 ± 0.0005
7 | CCCCCC [hexane] | 1.3728 ± 0.0005
8 | Cc1ccccc1 [toluene] | 1.494 ± 0.0004
